The values below come from patent US20200289514A1, “Novel Pyrazolo Pyrimidine Derivatives” (Novartis AG, priority 2015, published 2020).

For assay [1], the target named is T1, C-domain of MALT1 (amino acids 329-824) (Homo sapiens, UniProt Q9UDY8).
T1 sequence (Q9UDY8 329-824): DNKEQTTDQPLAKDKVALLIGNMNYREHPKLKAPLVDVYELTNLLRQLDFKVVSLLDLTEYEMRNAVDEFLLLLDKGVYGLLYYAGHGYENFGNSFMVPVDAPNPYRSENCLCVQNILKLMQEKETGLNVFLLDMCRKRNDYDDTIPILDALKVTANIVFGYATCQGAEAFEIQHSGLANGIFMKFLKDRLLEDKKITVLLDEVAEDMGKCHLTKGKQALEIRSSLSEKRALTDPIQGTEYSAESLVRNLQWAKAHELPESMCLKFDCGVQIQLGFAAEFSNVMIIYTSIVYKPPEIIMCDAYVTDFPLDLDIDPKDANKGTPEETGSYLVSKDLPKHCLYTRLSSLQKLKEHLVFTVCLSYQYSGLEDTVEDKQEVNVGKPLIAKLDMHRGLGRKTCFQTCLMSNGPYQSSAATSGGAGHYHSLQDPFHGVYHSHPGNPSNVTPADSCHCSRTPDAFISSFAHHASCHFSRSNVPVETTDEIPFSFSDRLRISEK
Nature of the assay: MALT1 Biochemical Assay - Version 1 (fluorescence lifetime).
Description: The readout parameter is the increase of fluorescence lifetime over time, proportional to enzyme activity.
The assay employs a short peptide substrate labeled with the single fluorophore PT14 as a fluorescence lifetime probe sensitive to the cleavage state of the substrate (PT14: 6-(9-oxo-9H-acridin-10-yl)-hexanoate, AssayMetrics, UK). […] Test compounds were dissolved in 100% (v/v) DMSO or a mixture containing 90% (v/v) DMSO and 10% (v/v) H2O at a stock concentration of 100 mM. Serial dilutions of test compounds were prepared using either 100% (v/v) DMSO or a mixture containing 90% (v/v) DMSO and 10% (v/v) H2O.
where y is the %-inhibition at the inhibitor concentration, x. A1 is the lowest inhibition value, and A2 the maximum inhibition value. The exponent, p, is the Hill coefficient.

For the next assay, the system named is Human IL2 promoter. Kind of assay: Human IL2 promoter reporter gene assay (RGA) in Jurkat cells. It is filed as cell-based. Particulars: Jurkat clone K22 290_H23, anti-CD28 mAb + PMA, 5.5 h. How it is done:
Human IL2 Promoter Reporter Gene Assay (RGA) in Jurkat Cells
The transfected Jurkat clone K22 290_H23 was propagated in RPMI 1640 supplemented with 10% heat inactivated fetal calf serum, 50 μM 2-mercaptoethanol and 1 mg/ml Geneticin. The cell concentration should not exceed 1×10e6/ml during culturing. The cells should not exceed passage 30. Prior to the assay the cells were washed and prepared to the concentration of 2×10e6 cells/ml.
Compound dilutions were made as 2×-concentrated solutions then diluted ½ by addition to cells. Two hundred and fifty μl of compound dilution and 250 μl of cells were mixed together in wells of a 96-deep well plate. Cells/compounds premix were incubated 30 min at 37° C. and 5% CO2 directly in the deep well plate.
After pre-incubation of cells with compounds, cells were stimulated with anti-CD28 mAb (clone 15E8) at 3 μg/ml+PMA at 1 μg/ml. Both co-stimulants were diluted in culture medium at a 10×-concentrated solution. 10 μl of co-stimulants were pipetted into the white 96-well plates and 100 μl of cell/compound mix was immediately added in duplicates. The cells were stimulated for 5.5 h at 37° C. and 5% CO2.
After cell stimulation, 50 μl of BriteLitePlus reagent (Perkin Elmer) was added to each well and the bioluminescence was measured with a Wallac EnVision reader (Perkin Elmer).

As a reminder, the IC50 is the concentration at which inhibition is half-maximal. As to `CC(=O)N1CC[C@@H](O[C@@H](C)c2c(NC(=O)Nc3cnc(-n4nccn4)c(Cl)c3)cnc3cc(Cl)nn23)C1` [Example 13, 1-(7-((S)-1-(((R)-1-acetylpyrrolidin-3-yl)oxy)ethyl)-2-chloropyrazolo[1,5-a]pyrimidin-6-yl)-3-(5-chloro-6-(2H-1,2,3-triazol-2-yl)pyridin-3-yl)urea], the results for the IC50 (in assay [1]; in the assay with Human IL2 promoter) were 23 nM and 88 nM, respectively.
As for `CO[C@@H](C)[C@H](OC)c1c(NC(=O)Nc2cnc(-n3nccn3)c(Cl)c2)cnc2cc(Cl)nn12` [Example 10, 1-(5-chloro-6-(2H-1,2,3-triazol-2-yl)pyridin-3-yl)-3-(2-chloro-7-((1R, 2S)-1,2-dimethoxypropyl)pyrazolo[1,5-a]pyrimidin-6-yl) urea], the IC50 in the assay on Human IL2 promoter is 22 nM.
Take `CO[C@@H](C)c1c(NC(=O)Nc2cc(C(C)O)nc(C(F)(F)F)c2)cnc2cc(F)nn12` (stereo partly drawn) [Example 17, 1-(2-fluoro-7-((S)-1-methoxyethyl)pyrazolo [1,5-a]pyrimidin-6-yl)-3-(2-(1-hydroxyethyl)-6-(trifluoromethyl)pyridin-4-yl)urea]: the figures for the half-maximal inhibitory concentration (IC50) (in assay [1]; in the assay with Human IL2 promoter) were 20 nM and 87 nM, respectively.
The matching figures for `COCCOc1ncc(Cl)cc1NC(=O)Nc1cnc2cc(Cl)nn2c1[C@H](C)OC` [Example 21, (S)-1-(5-chloro-2-(2-methoxyethoxy)pyridin-3-yl)-3-(2-chloro-7-(1-methoxyethyl)-pyrazolo[1,5-a]pyrimidin-6-yl)urea]: 9 nM and 47 nM.
For `CO[C@H](c1c(NC(=O)Nc2cnc(-n3nccn3)c(Cl)c2)cnc2cc(F)nn12)C(C)C` [Example 14, (S)-1-(5-chloro-6-(2H-1,2,3-triazol-2-yl)pyridin-3-yl)-3-(2-fluoro-7-(1-methoxy-2-methylpropyl)pyrazolo [1,5-a]pyrimidin-6-yl)urea], the IC50 came out at 3 nM in assay [1] and 6 nM in the assay with Human IL2 promoter.
The corresponding values for `CO[C@@H](C)c1c(NC(=O)Nc2cc(Cl)cnc2OC[C@H](C)N)cnc2cc(Cl)nn12` [Example 41, 1-(2-((S)-2-aminopropoxy)-5-chloropyridin-3-yl)-3-(2-chloro-7-((S)-1-methoxyethyl)pvrazolo[1,5-a]pyrimidin-6-yl)urea] are 21 nM and 50 nM.
The corresponding values for `COc1ncc(NC(=O)Nc2cnc3cc(Cl)nn3c2[C@@H](OC)[C@H](C)OC)cc1C#N` [Example 36, 1-(2-chloro-7-((1R, 2S)-1,2-dimethoxypropyl)pyrazolo[1,5-a]pyrimidin-6-yl)-3-(5-cyano-6-methoxypyridin-3-yl)urea] are 3 nM and 35 nM.
The matching figures for `CO[C@@H](C)c1c(NC(=O)Nc2ccnc(C(O)C(F)(F)F)c2)cnc2cc(Cl)nn12` (stereo partly drawn) [Example 20, 1-(2-chloro-7-((S)-1-methoxyethyl)pyrazolo [1,5-a]pyrimidin-6-yl)-3-(2-(2,2,2-trifluoro-1-hydroxyethyl)pyridin-4-yl)urea]: 9 nM and 101 nM.
`COc1ncc(NC(=O)Nc2cnc3cc(Cl)nn3c2[C@H](C)O[C@H]2CCN(C(C)=O)C2)cc1C#N` [Example 26, 1-(7-((S)-1-(((S)-1-acetylpyrrolidin-3-yl)oxy)ethyl)-2-chloropyrazolo[1,5-a]pyrimidin-6-yl)-3-(5-cyano-6-methoxypyridin-3-yl)urea]: the IC50 in assay [1] stood at 22 nM; in the assay on Human IL2 promoter it was 113 nM.
The matching figures for `CO[C@@H](C)c1c(NC(=O)Nc2cnc(-n3nccn3)c(C#N)c2)cnc2cc(F)nn12` [Example 18, (S)-1-(5-cyano-6-(2H-1,2,3-triazol-2-yl)pyridin-3-yl)-3-(2-fluoro-7-(1-methoxyethyl)pyrazolo [1,5-a]pyrimidin-6-yl)urea]: 4 nM and 19 nM.
The corresponding values for `CO[C@H](c1c(NC(=O)Nc2cnc(-n3nccn3)c(C(F)(F)F)c2)cnc2cc(Cl)nn12)C(C)C` [Example 8, (S)-1-(6-(2H-1,2,3-triazol-2-yl)-5-(trifluoromethyl)pyridin-3-yl)-3-(2-chloro-7-(1-methoxy-2-methylpropyl)pyrazolo [1,5-a]pyrimidin-6-yl)urea] are 2 nM and 38 nM.
The corresponding values for `C[C@H](N)c1c(NC(=O)Nc2cnc(-n3nccn3)c(Cl)c2)cnc2cc(Cl)nn12` [Example 38, (S)-1-(7-(1-aminoethyl)-2-chloropyrazolo[1,5-a]pyrimidin-6-yl)-3-(5-chloro-6-(2H-1,2,3-triazol-2-yl)pyridin-3-yl)urea] are 24 nM and 86 nM.
Regarding `CO[C@@H](C)c1c(NC(=O)Nc2ccnc(C#N)c2)cnc2cc(F)nn12` [Example 23, (S)-1-(2-cyanopyridin-4-yl)-3-(2-fluoro-7-(1-methoxyethyl)pyrazolo [1,5-a]pyrimidin-6-yl)urea], the IC50 in assay [1] was 16 nM; with Human IL2 promoter it was 42 nM.
The matching figures for `COCC1(c2c(NC(=O)Nc3cncc(C#N)c3)cnc3cc(Cl)nn23)CC1` [Example 9, 1-(2-chloro-7-(1-(methoxymethyl)cyclopropyl)pyrazolo[1,5-a]pyrimidin-6-yl)-3-(5-cyanopyridin-3-yl)urea]: 29 nM and 93 nM.
The matching figures for `CO[C@@H](C)c1c(NC(=O)Nc2cncc(Cl)c2)cnc2cc(Cl)nn12` [Example 35, (S)-1-(2-chloro-7-(1-methoxyethyl)pyrazolo [1,5-a]pyrimidin-6-yl)-3-(5-chloropyridin-3-yl)urea]: 10 nM and 17 nM.
The corresponding values for `COCC(OC)c1c(NC(=O)Nc2cnc(-n3nccn3)c(C#N)c2)cnc2cc(Cl)nn12` (stereo not drawn) [Example 19, 1-(2-chloro-7-(1,2-dimethoxyethyl)pyrazolo [1,5-a]pyrimidin-6-yl)-3-(5-cyano-6-(2H-1,2,3-triazol-2-yl)pyridin-3-yl)urea] are 9 nM and 56 nM.
`COCCO[C@@H](C)c1c(NC(=O)Nc2cnc(-n3nccn3)c(C(F)(F)F)c2)cnc2cc(Cl)nn12` [Example 7, (S)-1-(6-(2H-1,2,3-triazol-2-yl)-5-(trifluoromethyl)pyridin-3-yl)-3-(2-chloro-7-(1-(2-methoxyethoxy)ethyl)pyrazolo[1,5-a]pyrimidin-6-yl)urea]: the results for the IC50 (in assay [1]; with Human IL2 promoter) were 7 nM and 27 nM, respectively.
The corresponding values for `CO[C@@H](C)c1c(NC(=O)Nc2cncc(Cl)c2)cnc2cc(F)nn12` [Example 32, (S)-1-(5-chloro-pyridin-3-yl)-3-(2-fluoro-7-(1-methoxyethyl)pyrazolo [1,5-a]pyrimidin-6-yl)urea] are 11 nM and 40 nM.
The matching figures for `CO[C@@H](C)c1c(NC(=O)Nc2cnc(-n3nccn3)c(C#N)c2)cnc2cc(Cl)nn12` [Example 11, (S)-1-(2-chloro-7-(1-methoxyethyl)pyrazolo[1,5-a]pyrimidin-6-yl)-3-(5-cyano-6-(2H-1,2,3-triazol-2-yl)pyridin-3-yl)urea]: 2 nM and 12 nM.
For the compound `COCC1(c2c(NC(=O)Nc3ccnc(C#N)c3)cnc3cc(Cl)nn23)CC1` [Example 37, 1-(2-chloro-7-(1-(methoxymethyl)cyclopropyl)pyrazolo [1,5-a]pyrimidin-6-yl)-3-(2-cyanopyridin-4-yl)urea], the results for the IC50 (in assay [1]; in the assay with Human IL2 promoter) were 25 nM and 57 nM, respectively.
The matching figures for `COc1ncc(NC(=O)Nc2cnc3cc(Cl)nn3c2[C@H](C)OC)cc1C#N` [Example 16, (S)-1-(2-chloro-7-(1-methoxyethyl)pyrazolo [1,5-a]pyrimidin-6-yl)-3-(5-cyano-6-methoxypyridin-3-yl)urea]: 3 nM and 20 nM.
The matching figures for `CO[C@@H](C)c1c(NC(=O)Nc2cncc(C#N)c2)cnc2cc(F)nn12` [Example 12, (S)-1-(5-cyanopyridin-3-yl)-3-(2-fluoro-7-(1-methoxyethyl)pyrazolo[1,5-a]pyrimidin-6-yl)urea]: 31 nM and 73 nM.
Turning to `CO[C@@H](C)c1c(NC(=O)Nc2ccnc(C(F)(F)F)c2)cnc2cc(Cl)nn12` [Example 3, (S)-1-(2-chloro-7-(1-methoxyethyl)pyrazolo[1,5-a]pyrimidin-6-yl)-3-(2-(trifluoromethyl)pyridin-4-yl)urea], in the assay on Human IL2 promoter, the IC50 was 36 nM.
The same measure, in the same setting: for `CC(C)c1c(NC(=O)Nc2cnc(-n3nccn3)c(Cl)c2)cnc2cc(Cl)nn12` [Example 4, 1-(5-chloro-6-(2H-1,2,3-triazol-2-yl)pyridin-3-yl)-3-(2-chloro-7-isopropylpyrazolo[1,5-a]pyrimidin-6-yl)urea] the value was 103 nM.
